# Test results taken from US9963442B2, “Pyridones as herbicides” (E I DU PONT DE NEMOURS AND COMPANY, priority 2014, dated 2018).
# What was measured:
# Type in all cases: in vivo
# [1] = test system: Italian ryegrass (Lolium multiflorum); assay: Test A preemergence, directed soil spray; settings: approx. 10 days
# Text: (§1) Seeds of plant species selected from barnyardgrass (Echinochloa crus-galli), kochia (Kochia scoparia), ragweed (common ragweed, Ambrosia elatior), Italian ryegrass (Lolium multiflorum), giant foxtail (Setaria faberii), and pigweed (Amaranthus retroflexus) were planted into a blend of loam soil and sand and treated preemergence with a directed soil spray using test chemicals formulated in a non-phytotoxic solvent mixture which included a surfactant. At the same time, plants selected from these weed species and also wheat (Triticum aestivum), corn (Zea mays), blackgrass (Alopecurus myosuroides), and galium (catchweed bedstraw, Galium aparine) were planted in pots containing the same blend of loam soil and sand and treated with postemergence applications of test chemicals formulated in the same manner. Plants ranged in height from 2 to 10 cm and were in the one- to two-leaf stage for the postemergence treatment. Treated plants and untreated controls were maintained in a greenhouse for approximately 10 days, after which time all treated plants were compared to untreated controls and visually evaluated for injury. Plant response ratings, summarized in Table A, are based on a 0 to 100 scale where 0 is no effect and 100 is complete control. A dash (-) response means no test result.
# [2] = test system: barnyardgrass (Echinochloa crus-galli); assay: Test A preemergence, directed soil spray; settings: approx. 10 days
# Text: as §1
# [3] = test system: giant foxtail (Setaria faberii); assay: Test A preemergence, directed soil spray; settings: approx. 10 days
# Text: as §1
# kochia (Kochia scoparia) [4] = assay: Test A preemergence, directed soil spray; settings: approx. 10 days
# Text: as §1
# [5] = test system: pigweed (Amaranthus retroflexus); assay: Test A preemergence, directed soil spray; settings: approx. 10 days
# Text: as §1
# [6] = test system: ragweed (common ragweed, Ambrosia elatior); assay: Test A preemergence, directed soil spray; settings: approx. 10 days
# Text: as §1
# [7] = test system: Italian ryegrass (Lolium multiflorum); assay: Test A postemergence application; settings: approx. 10 days
# Text: as §1
# [8] = test system: barnyardgrass (Echinochloa crus-galli); assay: Test A postemergence application; settings: approx. 10 days
# Text: as §1
# [9] = test system: blackgrass (Alopecurus myosuroides); assay: Test A postemergence application; settings: approx. 10 days
# Text: as §1
# corn (Zea mays) = assay: Test A postemergence application; settings: approx. 10 days
# Text: as §1
# [10] = test system: galium (catchweed bedstraw, Galium aparine); assay: Test A postemergence application; settings: approx. 10 days
# Text: as §1
# [11] = test system: giant foxtail (Setaria faberii); assay: Test A postemergence application; settings: approx. 10 days
# Text: as §1
# kochia (Kochia scoparia) [12] = assay: Test A postemergence application; settings: approx. 10 days
# Text: as §1
# [13] = test system: pigweed (Amaranthus retroflexus); assay: Test A postemergence application; settings: approx. 10 days
# Text: as §1
# [14] = test system: ragweed (common ragweed, Ambrosia elatior); assay: Test A postemergence application; settings: approx. 10 days
# Text: as §1
# [15] = test system: wheat (Triticum aestivum); assay: Test A postemergence application; settings: approx. 10 days
# Text: as §1
# [16] = test system: barnyardgrass (Echinochloa crus-galli); assay: Test B flooded paddy test; design: key: 0 = no effect, 100 = complete control; settings: Flood, 250 g ai/ha applied to paddy water at 2-leaf stage; visually evaluated after 13 to 15 days; scale 0 (no effect) to 100 (complete control)
# Description: (§2) Plant species in the flooded paddy test selected from rice (Oryza sativa), sedge, umbrella (small-flower umbrella sedge, Cyperus difformis), ducksalad (Heteranthera limosa), and barnyardgrass (Echinochloa crus-galli) were grown to the 2-leaf stage for testing. At time of treatment, test pots were flooded to 3 cm above the soil surface, treated by application of test compounds directly to the paddy water, and then maintained at that water depth for the duration of the test. Treated plants and controls were maintained in a greenhouse for 13 to 15 days, after which time all species were compared to controls and visually evaluated. Plant response ratings, summarized in Table B, are based on a scale of 0 to 100 where 0 is no effect and 100 is complete control. A dash (-) response means no test result.
# [17] = test system: ducksalad (Heteranthera limosa); assay: Test B flooded paddy test; design: key: 0 = no effect, 100 = complete control; settings: Flood, 250 g ai/ha applied to paddy water at 2-leaf stage; visually evaluated after 13 to 15 days; scale 0 (no effect) to 100 (complete control)
# Description: as §2
# rice (Oryza sativa) = assay: Test B flooded paddy test; design: key: 0 = no effect, 100 = complete control; settings: Flood, 250 g ai/ha applied to paddy water at 2-leaf stage; visually evaluated after 13 to 15 days; scale 0 (no effect) to 100 (complete control)
# Description: as §2
# [18] = test system: sedge, umbrella (small-flower umbrella sedge, Cyperus difformis); assay: Test B flooded paddy test; design: key: 0 = no effect, 100 = complete control; settings: Flood, 250 g ai/ha applied to paddy water at 2-leaf stage; visually evaluated after 13 to 15 days; scale 0 (no effect) to 100 (complete control)
# Description: as §2
smiles,measurement,setting,value
O=c1cccc(Oc2ncc(Cl)cn2)n1-c1ncc(C(F)(F)F)cn1 [Compound 5],"Plant response rating (0 to 100 scale, 0 no effect, 100 complete control), Ryegrass, Italian",[1]; 31 g ai/ha,0
same,"Plant response rating (0 to 100 scale, 0 no effect, 100 complete control), Ryegrass, Italian",[1]; 125 g ai/ha,0
same,"Plant response rating (0 to 100 scale, 0 no effect, 100 complete control), Barnyardgrass",[2]; 31 g ai/ha,0
same,"Plant response rating (0 to 100 scale, 0 no effect, 100 complete control), Barnyardgrass",[2]; 125 g ai/ha,80
same,"Plant response rating (0 to 100 scale, 0 no effect, 100 complete control), Foxtail, Giant",[3]; 31 g ai/ha,70
same,"Plant response rating (0 to 100 scale, 0 no effect, 100 complete control), Foxtail, Giant",[3]; 125 g ai/ha,100
same,"Plant response rating (0 to 100 scale, 0 no effect, 100 complete control), Kochia",kochia (Kochia scoparia) [4]; 31 g ai/ha,0
same,"Plant response rating (0 to 100 scale, 0 no effect, 100 complete control), Kochia",kochia (Kochia scoparia) [4]; 125 g ai/ha,100
same,"Plant response rating (0 to 100 scale, 0 no effect, 100 complete control), Pigweed",[5]; 31 g ai/ha,90
same,"Plant response rating (0 to 100 scale, 0 no effect, 100 complete control), Pigweed",[5]; 125 g ai/ha,100
same,"Plant response rating (0 to 100 scale, 0 no effect, 100 complete control), Ragweed",[6]; 31 g ai/ha,0
same,"Plant response rating (0 to 100 scale, 0 no effect, 100 complete control), Ragweed",[6]; 125 g ai/ha,80
same,"Plant response rating (0 to 100 scale, 0 no effect, 100 complete control), Ryegrass, Italian",[7]; 31 g ai/ha,0
same,"Plant response rating (0 to 100 scale, 0 no effect, 100 complete control), Ryegrass, Italian",[7]; 125 g ai/ha,30
same,"Plant response rating (0 to 100 scale, 0 no effect, 100 complete control), Barnyardgrass",[8]; 31 g ai/ha,0
same,"Plant response rating (0 to 100 scale, 0 no effect, 100 complete control), Barnyardgrass",[8]; 125 g ai/ha,20
same,"Plant response rating (0 to 100 scale, 0 no effect, 100 complete control), Blackgrass",[9]; 31 g ai/ha,30
same,"Plant response rating (0 to 100 scale, 0 no effect, 100 complete control), Blackgrass",[9]; 125 g ai/ha,50
same,"Plant response rating (0 to 100 scale, 0 no effect, 100 complete control), Corn",corn (Zea mays); 31 g ai/ha,0
same,"Plant response rating (0 to 100 scale, 0 no effect, 100 complete control), Corn",corn (Zea mays); 125 g ai/ha,10
same,"Plant response rating (0 to 100 scale, 0 no effect, 100 complete control), Galium",[10]; 31 g ai/ha,50
same,"Plant response rating (0 to 100 scale, 0 no effect, 100 complete control), Galium",[10]; 125 g ai/ha,90
same,"Plant response rating (0 to 100 scale, 0 no effect, 100 complete control), Foxtail, Giant",[11]; 31 g ai/ha,10
same,"Plant response rating (0 to 100 scale, 0 no effect, 100 complete control), Foxtail, Giant",[11]; 125 g ai/ha,80
same,"Plant response rating (0 to 100 scale, 0 no effect, 100 complete control), Kochia",kochia (Kochia scoparia) [12]; 31 g ai/ha,40
same,"Plant response rating (0 to 100 scale, 0 no effect, 100 complete control), Kochia",kochia (Kochia scoparia) [12]; 125 g ai/ha,60
same,"Plant response rating (0 to 100 scale, 0 no effect, 100 complete control), Pigweed",[13]; 31 g ai/ha,70
same,"Plant response rating (0 to 100 scale, 0 no effect, 100 complete control), Pigweed",[13]; 125 g ai/ha,90
same,"Plant response rating (0 to 100 scale, 0 no effect, 100 complete control), Ragweed",[14]; 31 g ai/ha,30
same,"Plant response rating (0 to 100 scale, 0 no effect, 100 complete control), Ragweed",[14]; 125 g ai/ha,80
same,"Plant response rating (0 to 100 scale, 0 no effect, 100 complete control), Wheat",[15]; 31 g ai/ha,0
same,"Plant response rating (0 to 100 scale, 0 no effect, 100 complete control), Wheat",[15]; 125 g ai/ha,0
same,"Plant response rating, Barnyardgrass",[16],0
same,"Plant response rating, Ducksalad",[17],85
same,"Plant response rating, Rice",rice (Oryza sativa),0
same,"Plant response rating, Sedge, Umbrella",[18],75
O=c1cccc(Oc2ncc(Cl)cn2)n1-c1ccc(Cl)cn1 [Compound 8],"Plant response rating (0 to 100 scale, 0 no effect, 100 complete control), Ryegrass, Italian",[1]; 31 g ai/ha,0
same,"Plant response rating (0 to 100 scale, 0 no effect, 100 complete control), Ryegrass, Italian",[1]; 125 g ai/ha,10
same,"Plant response rating (0 to 100 scale, 0 no effect, 100 complete control), Barnyardgrass",[2]; 31 g ai/ha,0
same,"Plant response rating (0 to 100 scale, 0 no effect, 100 complete control), Barnyardgrass",[2]; 125 g ai/ha,30
same,"Plant response rating (0 to 100 scale, 0 no effect, 100 complete control), Foxtail, Giant",[3]; 31 g ai/ha,40
same,"Plant response rating (0 to 100 scale, 0 no effect, 100 complete control), Foxtail, Giant",[3]; 125 g ai/ha,80
same,"Plant response rating (0 to 100 scale, 0 no effect, 100 complete control), Kochia",kochia (Kochia scoparia) [4]; 31 g ai/ha,30
same,"Plant response rating (0 to 100 scale, 0 no effect, 100 complete control), Kochia",kochia (Kochia scoparia) [4]; 125 g ai/ha,100
same,"Plant response rating (0 to 100 scale, 0 no effect, 100 complete control), Pigweed",[5]; 31 g ai/ha,70
same,"Plant response rating (0 to 100 scale, 0 no effect, 100 complete control), Pigweed",[5]; 125 g ai/ha,100
same,"Plant response rating (0 to 100 scale, 0 no effect, 100 complete control), Ragweed",[6]; 31 g ai/ha,0
same,"Plant response rating (0 to 100 scale, 0 no effect, 100 complete control), Ragweed",[6]; 125 g ai/ha,20
same,"Plant response rating (0 to 100 scale, 0 no effect, 100 complete control), Ryegrass, Italian",[7]; 31 g ai/ha,10
same,"Plant response rating (0 to 100 scale, 0 no effect, 100 complete control), Ryegrass, Italian",[7]; 125 g ai/ha,20
same,"Plant response rating (0 to 100 scale, 0 no effect, 100 complete control), Barnyardgrass",[8]; 31 g ai/ha,10
same,"Plant response rating (0 to 100 scale, 0 no effect, 100 complete control), Barnyardgrass",[8]; 125 g ai/ha,30
same,"Plant response rating (0 to 100 scale, 0 no effect, 100 complete control), Blackgrass",[9]; 31 g ai/ha,10
same,"Plant response rating (0 to 100 scale, 0 no effect, 100 complete control), Blackgrass",[9]; 125 g ai/ha,20
same,"Plant response rating (0 to 100 scale, 0 no effect, 100 complete control), Corn",corn (Zea mays); 31 g ai/ha,10
same,"Plant response rating (0 to 100 scale, 0 no effect, 100 complete control), Corn",corn (Zea mays); 125 g ai/ha,20
same,"Plant response rating (0 to 100 scale, 0 no effect, 100 complete control), Galium",[10]; 31 g ai/ha,60
same,"Plant response rating (0 to 100 scale, 0 no effect, 100 complete control), Galium",[10]; 125 g ai/ha,70
same,"Plant response rating (0 to 100 scale, 0 no effect, 100 complete control), Foxtail, Giant",[11]; 31 g ai/ha,20
same,"Plant response rating (0 to 100 scale, 0 no effect, 100 complete control), Foxtail, Giant",[11]; 125 g ai/ha,70
same,"Plant response rating (0 to 100 scale, 0 no effect, 100 complete control), Kochia",kochia (Kochia scoparia) [12]; 31 g ai/ha,70
same,"Plant response rating (0 to 100 scale, 0 no effect, 100 complete control), Kochia",kochia (Kochia scoparia) [12]; 125 g ai/ha,90
same,"Plant response rating (0 to 100 scale, 0 no effect, 100 complete control), Pigweed",[13]; 31 g ai/ha,80
same,"Plant response rating (0 to 100 scale, 0 no effect, 100 complete control), Pigweed",[13]; 125 g ai/ha,90
same,"Plant response rating (0 to 100 scale, 0 no effect, 100 complete control), Ragweed",[14]; 31 g ai/ha,30
same,"Plant response rating (0 to 100 scale, 0 no effect, 100 complete control), Ragweed",[14]; 125 g ai/ha,70
same,"Plant response rating (0 to 100 scale, 0 no effect, 100 complete control), Wheat",[15]; 31 g ai/ha,0
same,"Plant response rating (0 to 100 scale, 0 no effect, 100 complete control), Wheat",[15]; 125 g ai/ha,0
same,"Plant response rating, Barnyardgrass",[16],0
same,"Plant response rating, Ducksalad",[17],75
same,"Plant response rating, Rice",rice (Oryza sativa),0
same,"Plant response rating, Sedge, Umbrella",[18],65
